PubChem BioAssay AID2060903 (Molecular Pharmacology Branch, DTP, NCI, 2025)
pIC50: −log10 of the molar value.

System: 377384-186-R-J1-PDC complex spheroid viability
Experiment: Anticancer human tumor 377384-186-R-J1-PDC patient-derived pancreatic carcinoma cell line growth inhibition [RAS]
Conditions: for pIC50: curve of first compound; for viability, T/C: stronger effect = lower value
Outline: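 Tumour cells grown as complex spheroids with HUVEC endothelial cells and mesenchymal stem cells, treated with RAS pathway inhibitor combinations. Each agent spans half-log steps from near clinical Cmax, or 10 microM where Cmax is unknown.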
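Note: spheroids exposed to compounds for seven days before readout.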

For `CCN1CCN(Cc2ccc(Nc3ncc(F)c(-c4cc(F)c5nc(C)n(C(C)C)c5c4)n3)nc2)CC1` + C=CC(=O)N1CCN(c2nc(OCC3CCCN3C)nc3c(F)c(-c4nc(N)cc(C)c4C(F)(F)F)c(Cl)cc23)C(C)C1, the pIC50 (second compound 0.00316 µM) was 6.68, the pIC50 (second compound 0.01 µM) was 6.74 and the pIC50 (second compound 0.0316 µM) was 6.82. For the same compound, the pIC50 (second compound 0.1 µM) was 6.68, the pIC50 (second compound 0.316 µM) was 6.65 and the pIC50 (second compound 1 µM) was 6.51. For the same compound, the viability, T/C (second compound 0.00316 µM, first compound 0.00316 µM) was 87.5%, the viability, T/C (second compound 0.00316 µM, first compound 0.01 µM) was 77.2% and the viability, T/C (second compound 0.00316 µM, first compound 0.0316 µM) was 68.7%. It also gave a viability, T/C (second compound 0.00316 µM, first compound 0.1 µM) of 56.6%, a viability, T/C (second compound 0.00316 µM, first compound 0.316 µM) of 45.4% and a viability, T/C (second compound 0.00316 µM, first compound 1 µM) of 40.4%. It also gave a viability, T/C (second compound 0.01 µM, first compound 0.00316 µM) of 91.4%, a viability, T/C (second compound 0.01 µM, first compound 0.01 µM) of 79.8% and a viability, T/C (second compound 0.01 µM, first compound 0.0316 µM) of 73.3%. For the same compound, the viability, T/C (second compound 0.01 µM, first compound 0.1 µM) was 52.1%, the viability, T/C (second compound 0.01 µM, first compound 0.316 µM) was 46.8% and the viability, T/C (second compound 0.01 µM, first compound 1 µM) was 40.2%. The viability, T/C (second compound 0.0316 µM, first compound 0.00316 µM) was 89.4%, the viability, T/C (second compound 0.0316 µM, first compound 0.01 µM) was 81.8% and the viability, T/C (second compound 0.0316 µM, first compound 0.0316 µM) was 73.6%. The viability, T/C (second compound 0.0316 µM, first compound 0.1 µM) was 53.6%, the viability, T/C (second compound 0.0316 µM, first compound 0.316 µM) was 42.5% and the viability, T/C (second compound 0.0316 µM, first compound 1 µM) was 36.6%. For the same compound, the viability, T/C (second compound 0.1 µM, first compound 0.00316 µM) was 82.1%, the viability, T/C (second compound 0.1 µM, first compound 0.01 µM) was 78% and the viability, T/C (second compound 0.1 µM, first compound 0.0316 µM) was 70.7%. For the same compound, the viability, T/C (second compound 0.1 µM, first compound 0.1 µM) was 59%, the viability, T/C (second compound 0.1 µM, first compound 0.316 µM) was 44.6% and the viability, T/C (second compound 0.1 µM, first compound 1 µM) was 38.7%. It also gave a viability, T/C (second compound 0.316 µM, first compound 0.00316 µM) of 85.6%, a viability, T/C (second compound 0.316 µM, first compound 0.01 µM) of 79.2% and a viability, T/C (second compound 0.316 µM, first compound 0.0316 µM) of 77%. For the same compound, the viability, T/C (second compound 0.316 µM, first compound 0.1 µM) was 58.9%, the viability, T/C (second compound 0.316 µM, first compound 0.316 µM) was 46.3% and the viability, T/C (second compound 0.316 µM, first compound 1 µM) was 39.8%. The viability, T/C (second compound 1 µM, first compound 0.00316 µM) was 95.1%, the viability, T/C (second compound 1 µM, first compound 0.01 µM) was 75.4% and the viability, T/C (second compound 1 µM, first compound 0.0316 µM) was 73.6%. For the same compound, the viability, T/C (second compound 1 µM, first compound 0.1 µM) was 57.5%, the viability, T/C (second compound 1 µM, first compound 0.316 µM) was 46.1% and the viability, T/C (second compound 1 µM, first compound 1 µM) was 45.9%.

For `CC(C)n1nc(-c2ccc3oc(N)nc3c2)c2c(N)ncnc21` + CCn1c(-c2cc(N3CCN(C)CC3)cnc2C(C)OC)c2c3cc(ccc31)-c1csc(n1)CC(NC(=O)C1CC1C)C(=O)N1CCCC(N1)C(=O)OCC(C)(C)C2, the pIC50 (second compound 0.000949 µM) was 9.00, the pIC50 (second compound 0.003 µM) was over 9.50 and the pIC50 (second compound 0.00949 µM) was over 9.50. The pIC50 (second compound 0.03 µM) was over 9.50, the pIC50 (second compound 0.0949 µM) was over 9.50 and the pIC50 (second compound 0.3 µM) was over 9.50. It also gave a viability, T/C (second compound 0.000949 µM, first compound 0.000316 µM) of 48.6%, a viability, T/C (second compound 0.000949 µM, first compound 0.001 µM) of 57.8% and a viability, T/C (second compound 0.000949 µM, first compound 0.00316 µM) of 35.5%. For the same compound, the viability, T/C (second compound 0.000949 µM, first compound 0.01 µM) was 26.4%, the viability, T/C (second compound 0.000949 µM, first compound 0.0316 µM) was 16.2% and the viability, T/C (second compound 0.000949 µM, first compound 0.1 µM) was 10.3%. The viability, T/C (second compound 0.003 µM, first compound 0.000316 µM) was 20.1%, the viability, T/C (second compound 0.003 µM, first compound 0.001 µM) was 24.1% and the viability, T/C (second compound 0.003 µM, first compound 0.00316 µM) was 17.6%. The viability, T/C (second compound 0.003 µM, first compound 0.01 µM) was 13.7%, the viability, T/C (second compound 0.003 µM, first compound 0.0316 µM) was 8.27% and the viability, T/C (second compound 0.003 µM, first compound 0.1 µM) was 4.84%. The viability, T/C (second compound 0.00949 µM, first compound 0.000316 µM) was 4.46%, the viability, T/C (second compound 0.00949 µM, first compound 0.001 µM) was 4.86% and the viability, T/C (second compound 0.00949 µM, first compound 0.00316 µM) was 4.1%. The viability, T/C (second compound 0.00949 µM, first compound 0.01 µM) was 5.4%, the viability, T/C (second compound 0.00949 µM, first compound 0.0316 µM) was 4.11% and the viability, T/C (second compound 0.00949 µM, first compound 0.1 µM) was 2.39%. It also gave a viability, T/C (second compound 0.03 µM, first compound 0.000316 µM) of 2.29%, a viability, T/C (second compound 0.03 µM, first compound 0.001 µM) of 2.17% and a viability, T/C (second compound 0.03 µM, first compound 0.00316 µM) of 2.37%. For the same compound, the viability, T/C (second compound 0.03 µM, first compound 0.01 µM) was 1.66%, the viability, T/C (second compound 0.03 µM, first compound 0.0316 µM) was 1.3% and the viability, T/C (second compound 0.03 µM, first compound 0.1 µM) was 0.91%. For the same compound, the viability, T/C (second compound 0.0949 µM, first compound 0.000316 µM) was 1.81%, the viability, T/C (second compound 0.0949 µM, first compound 0.001 µM) was 2.1% and the viability, T/C (second compound 0.0949 µM, first compound 0.00316 µM) was 2.12%. For the same compound, the viability, T/C (second compound 0.0949 µM, first compound 0.01 µM) was 1.18%, the viability, T/C (second compound 0.0949 µM, first compound 0.0316 µM) was 0.96% and the viability, T/C (second compound 0.0949 µM, first compound 0.1 µM) was 0.58%. It also gave a viability, T/C (second compound 0.3 µM, first compound 0.000316 µM) of 1.71%, a viability, T/C (second compound 0.3 µM, first compound 0.001 µM) of 1.54% and a viability, T/C (second compound 0.3 µM, first compound 0.00316 µM) of 1.69%. For the same compound, the viability, T/C (second compound 0.3 µM, first compound 0.01 µM) was 1.04%, the viability, T/C (second compound 0.3 µM, first compound 0.0316 µM) was 0.89% and the viability, T/C (second compound 0.3 µM, first compound 0.1 µM) was 0.59%.
